Experiments:
Assay type in all cases: in vivo
Digitaria sanguinalis = experiment: Greenhouse trial, post-emergence, visual herbicidal effect; settings: alone
Description: (§1) The weed seeds were sown in pots (diameter 8 cm) with sandy loam soil and germinated under optimum conditions. The herbides were applied by the post-emergence method onto the pots with the cultures, at a spray volume of 300 I/ha. The herbicides were applied on their own and in combination. The trial was conducted in a greenhouse under optimum growth conditions. The herbicidal effects were assessed visually by comparison of untreated and treated plants. The percentages mean: 0%=no effects, 100%=the plants die off completely). The percentages are used to calculate interactions between individual treatments and combination treatment according to S. R. Colby, Weeds 15, pages 20 to 22 (1967).
(§2) The abbreviations denote: • a.i.=active ingredient • E^C=expected value according to Colby (E^C=A+B−A×B100) • Δ=difference (%) of the measured value to the expected value (%) (measured value minus expected value)
(§3) Evaluation: • measured value E is greater than E^C:→synergism (+Δ) • measured value E equals E^C:→additive effect • measured value E is smaller than E^C:→antagonism (−Δ)

Pharbitis purpurea = experiment: as above; settings: alone
Description: as §1, §2, §3

Bidens pilosa = experiment: as above
Description: as §1, §2, §3

Ambrosia artemisiifolia = experiment: as above; settings: alone
Description: as §1, §2, §3

Setaria viridis = experiment: as above
Description: as §1, §2, §3

Polygonum convolvulus = experiment: as above; settings: alone
Description: as §1, §2, §3

Avena fatua = experiment: as above; settings: Table 5-49, greenhouse, alone, 4 g of a.i./ha
Description: as §1, §2, §3

Centaurea cyanis = experiment: as above; settings: alone
Description: as §1, §2, §3

Euphorbia heterophylla = experiment: Field trial, post-emergence, visual scoring
Description: (§4) The tests were conducted outdoors (plot trials, 10 m^2 per plot, 2 repetitions, spray application with 200-300 liters of water per hectare). Crops and broad-leaved weeds/weed grasses were sown under customary field conditions. In addition, a natural weed flora also appeared. Application was by the post-emergence method. The application rates of the herbicidally active compounds applied on their own or in combinations are likewise shown in the tables below. Evaluations were by visual scoring (using a 0-100% scale) after application by comparison of treated and untreated test variants.
as §2, §3

Brachiaria platyphylla = experiment: Greenhouse trial, post-emergence, visual herbicidal effect
Description: as §1, §2, §3

Veronica hederifolia = experiment: Field trial, post-emergence, visual scoring; settings: alone, 25 g of a.i./ha
Description: as §4, §2, §3

Papaver rhoeas = experiment: Greenhouse trial, post-emergence, visual herbicidal effect; settings: alone
Description: as §1, §2, §3

Galium aparine = experiment: Field trial, post-emergence, visual scoring; settings: Table 5-92, field, alone, 25 g of a.i./ha
Description: as §4, §2, §3

Xanthium strumarium = experiment: Greenhouse trial, post-emergence, visual herbicidal effect; settings: alone
Description: as §1, §2, §3

Portulaca oleracea = experiment: Field trial, post-emergence, visual scoring; settings: alone
Description: as §4, §2, §3

[1] = Table 5-91, greenhouse, 2 g of a.i./ha
[2] = Table 5-97, greenhouse, alone, 0.5 g of a.i./ha
[3] = Table 5-99, greenhouse, 1 g of a.i./ha
[4] = Table 5-101, greenhouse, 1 g of a.i./ha
[5] = Table 5-100, greenhouse, 1 g of a.i./ha
[6] = Table 5-103, greenhouse, 2 g of a.i./ha

Compound: CCSc1c(Br)ccc(C(=O)Nc2nnnn2C)c1C [A1-23]
- Activity [%] against Digitaria sanguinalis (Digitaria sanguinalis; Table 5-35, greenhouse, 1 g of a.i./ha): 10%
- Activity [%] against Pharbitis purpurea (Pharbitis purpurea; Table 5-30, greenhouse, 1 g of a.i./ha): 45%
- Activity [%] against Pharbitis purpurea (Pharbitis purpurea; Table 5-34, greenhouse, 2 g of a.i./ha): 45%
- Activity [%] against Bidens pilosa (Bidens pilosa; Table 5-28, greenhouse, alone, 2 g of a.i./ha): 45%
- Activity [%] against Bidens pilosa (Bidens pilosa; Table 5-33, greenhouse, alone, 1 g of a.i./ha): 35%
- Activity [%] against Ambrosia artemisiifolia (Ambrosia artemisiifolia; Table 5-29, greenhouse, 1 g of a.i./ha): 10%
- Activity [%] against Ambrosia artemisiifolia (Ambrosia artemisiifolia; Table 5-32, greenhouse, 1 g of a.i./ha): 0%
- Activity [%] against Setaria viridis (Setaria viridis; Table 5-27, greenhouse, alone, 2 g of a.i./ha): 50%
- Activity [%] against Setaria viridis (Setaria viridis; Table 5-31, greenhouse, alone, 2 g of a.i./ha): 50%

Compound: Cc1c(C(=O)Nc2nnnn2C)ccc(S(C)(=O)=O)c1C1=NOCC1 [A1-24]
- Activity [%] against Digitaria sanguinalis (Digitaria sanguinalis; Table 5-36, greenhouse, 6 g of a.i./ha): 50%
- Activity [%] against Polygonum convolvulus (Polygonum convolvulus; Table 5-37, greenhouse, 6 g of a.i./ha): 0%

Compound: CCc1c(C(=O)Nc2nnnn2C)ccc(C(F)(F)F)c1SC [A1-33]
- Activity [%] against Polygonum convolvulus (Polygonum convolvulus; Table 5-44, greenhouse, 4 g of a.i./ha): 0%
- Activity [%] against Setaria viridis (Setaria viridis; Table 5-43, greenhouse, alone, 2 g of a.i./ha): 75%

Compound: COc1c(C(=O)Nc2nnnn2C)ccc(C(F)(F)F)c1SC [A1-44]
- Activity [%] against Avena fatua (Avena fatua): 0%
- Activity [%] against Centaurea cyanis (Centaurea cyanis; Table 5-50, greenhouse, 8 g of a.i./ha): 50%
- Activity [%] against Euphorbia heterophylla (Euphorbia heterophylla; Table 5-51, field, alone, 25 g of a.i./ha): 58%

Compound: Cn1nnnc1NC(=O)c1ccc(S(C)(=O)=O)c(COCC(F)(F)F)c1Cl [A1-61]
- Activity [%] against Brachiaria platyphylla (Brachiaria platyphylla; Table 5-64, greenhouse, alone, 6 g of a.i./ha): 0%
- Activity [%] against Setaria viridis (Setaria viridis; Table 5-65, greenhouse, alone, 3 g of a.i./ha): 0%
- Activity [%] against Veronica hederifolia (Veronica hederifolia; Table 5-66, field): 68%

Compound: CCS(=O)(=O)c1ccc(C(=O)Nc2nnnn2C)c(Cl)c1C1=NOC(COC)C1 (stereo not shown) [A1-66]
- Activity [%] against Ambrosia artemisiifolia (Ambrosia artemisiifolia; Table 5-75, greenhouse, 6 g of a.i./ha): 35%
- Activity [%] against Veronica hederifolia (Veronica hederifolia; Table 5-76, field): 75%

Compound: CCOc1c(S(C)(=O)=O)ccc(C(=O)Nc2nnnn2C)c1Cl [A1-69]
- Activity [%] against Centaurea cyanis (Centaurea cyanis; Table 5-81, greenhouse, 4 g of a.i./ha): 65%
- Activity [%] against Papaver rhoeas (Papaver rhoeas; Table 5-82, greenhouse, 4 g of a.i./ha): 10%
- Activity [%] against Papaver rhoeas (Papaver rhoeas; Table 5-83, greenhouse, 4 g of a.i./ha): 10%
- Activity [%] against Polygonum convolvulus (Polygonum convolvulus; Table 5-84, greenhouse, 4 g of a.i./ha): 0%
- Activity [%] against Euphorbia heterophylla (Euphorbia heterophylla; Table 5-85, field, alone, 25 g of a.i./ha): 20%

Compound: CCn1nnnc1NC(=O)c1ccc(C(F)F)c(SC)c1OC [A1-79]
- Activity [%] against Bidens pilosa (Bidens pilosa; Table 5-90, greenhouse, alone, 2 g of a.i./ha): 20%
- Activity [%] against Ambrosia artemisiifolia (Ambrosia artemisiifolia; [1]): 30%
- Activity [%] against Galium aparine (Galium aparine): 70%

Compound: COc1c(C(=O)Nc2nnnn2C)ccc(C(F)F)c1S(C)(=O)=O [A1-80]
- Activity [%] against Ambrosia artemisiifolia (Ambrosia artemisiifolia; Table 5-93, greenhouse, 1 g of a.i./ha): 25%

Compound: CCS(=O)(=O)c1ccc(C(=O)Nc2nnnn2C)c(Cl)c1OCCCOC [A1-83]
- Activity [%] against Bidens pilosa (Bidens pilosa; Table 5-96, greenhouse, alone, 1 g of a.i./ha): 35%
- Activity [%] against Brachiaria platyphylla (Brachiaria platyphylla; [2]): 0%

Compound: CCn1nnnc1NC(=O)c1ccc(C)c([S+](C)[O-])c1Cl (stereo not shown) [A1-84]
- Activity [%] against Xanthium strumarium (Xanthium strumarium; [3]): 10%
- Activity [%] against Pharbitis purpurea (Pharbitis purpurea; Table 5-98, greenhouse, 2 g of a.i./ha): 30%

Compound: CSc1c(C(F)(F)F)ccc(C(=O)Nc2nnnn2C)c1Cl [A1-85]
- Activity [%] against Xanthium strumarium (Xanthium strumarium; [4]): 25%
- Activity [%] against Ambrosia artemisiifolia (Ambrosia artemisiifolia; [5]): 50%

Compound: Cc1c(C(=O)Nc2ncnn2C)ccc(S(C)(=O)=O)c1S(C)(=O)=O [A2-4]
- Activity [%] against Xanthium strumarium (Xanthium strumarium; [6]): 10%
- Activity [%] against Ambrosia artemisiifolia (Ambrosia artemisiifolia; Table 5-102, greenhouse, 1 g of a.i./ha): 40%
- Activity [%] against Euphorbia heterophylla (Euphorbia heterophylla; Field, dosage 25 g of a.i./ha): 50%

Compound: CCS(=O)(=O)c1c(C(F)(F)F)ccc(C(=O)Nc2ncnn2C)c1Cl [A2-10]
- Activity [%] against Bidens pilosa (Bidens pilosa; Greenhouse, dosage 2 g of a.i./ha): 50%
- Activity [%] against Brachiaria platyphylla (Brachiaria platyphylla; Greenhouse, dosage 1 g of a.i./ha, Table 5-110): 35%
- Activity [%] against Brachiaria platyphylla (Brachiaria platyphylla; Greenhouse, dosage 2 g of a.i./ha, Table 5-109): 0%

Compound: Nc1c([N+](=O)[O-])ccc(Oc2ccccc2)c1Cl [aclonifen]
- Activity [%] against Portulaca oleracea (Portulaca oleracea; Table 5-22, field, 1200 g of a.i./ha): 0%

Compound: C/C(=N\NC(=O)Nc1cc(F)cc(F)c1)c1ncccc1C(=O)O [diflufenzopyr]
- Activity [%] against Brachiaria platyphylla (Brachiaria platyphylla; Greenhouse, dosage 25 g of a.i./ha, Table 5-113): 60%
- Activity [%] against Ambrosia artemisiifolia (Ambrosia artemisiifolia; Table 5-93, greenhouse, 25 g of a.i./ha): 50%
- Activity [%] against Setaria viridis (Setaria viridis; Greenhouse, dosage 12.5 g of a.i./ha): 50%

Compound: COc1cc(OC)nc(NC(=O)NS(=O)(=O)c2cc(NC=O)ccc2C(=O)N(C)C)n1 [foramsulfuron]
- Activity [%] against Portulaca oleracea (Portulaca oleracea; Table 5-14, field, 16 g of a.i./ha): 0%

Compound: COCc1cnc(C2=NC(C)(C(C)C)C(=O)N2)c(C(=O)O)c1 (stereo not shown) [imazamox]
- Activity [%] against Xanthium strumarium (Xanthium strumarium; [3]): 0%
- Activity [%] against Xanthium strumarium (Xanthium strumarium; [4]): 10%
- Activity [%] against Xanthium strumarium (Xanthium strumarium; [6]): 0%
- Activity [%] against Pharbitis purpurea (Pharbitis purpurea; Table 5-98, greenhouse, 1 g of a.i./ha): 15%
- Activity [%] against Bidens pilosa (Bidens pilosa; Table 5-46, greenhouse, alone, 1 g of a.i./ha): 10%
- Activity [%] against Bidens pilosa (Bidens pilosa; Table 5-47, greenhouse, alone, 2 g of a.i./ha): 20%
- Activity [%] against Bidens pilosa (Bidens pilosa; Table 5-90, greenhouse, alone, 1 g of a.i./ha): 10%
- Activity [%] against Brachiaria platyphylla (Brachiaria platyphylla; Table 5-45, greenhouse, alone, 2 g of a.i./ha): 10%
- Activity [%] against Ambrosia artemisiifolia (Ambrosia artemisiifolia; [1]): 10%
- Activity [%] against Ambrosia artemisiifolia (Ambrosia artemisiifolia; [5]): 0%
- Activity [%] against Ambrosia artemisiifolia (Ambrosia artemisiifolia; Table 5-102, greenhouse, 2 g of a.i./ha): 0%

Compound: CC(C)c1ccc(NC(=O)N(C)C)cc1 [isoproturon]
- Activity [%] against Centaurea cyanis (Centaurea cyanis; Table 5-81, greenhouse, 100 g of a.i./ha): 0%
- Activity [%] against Papaver rhoeas (Papaver rhoeas; Table 5-82, greenhouse, 200 g of a.i./ha): 40%
- Activity [%] against Papaver rhoeas (Papaver rhoeas; Table 5-83, greenhouse, 200 g of a.i./ha): 40%
- Activity [%] against Polygonum convolvulus (Polygonum convolvulus; Table 5-44, greenhouse, 200 g of a.i./ha): 0%
- Activity [%] against Polygonum convolvulus (Polygonum convolvulus; Table 5-84, greenhouse, 200 g of a.i./ha): 0%
- Activity [%] against Setaria viridis (Setaria viridis; Table 5-43, greenhouse, alone, 200 g of a.i./ha): 10%

Compound: CS(=O)(=O)c1ccc(C(=O)C2C(=O)CCCC2=O)c([N+](=O)[O-])c1 [mesotrione]
- Activity [%] against Portulaca oleracea (Portulaca oleracea; Table 5-15, field, 25 g of a.i./ha): 0%

Compound: COc1cc(OC)nc(NC(=O)NS(=O)(=O)c2ncccc2C(=O)N(C)C)n1 [nicosulfuron]
- Activity [%] against Portulaca oleracea (Portulaca oleracea; Table 5-19, field, 20 g of a.i./ha): 30%

Compound: CCC(CC)Nc1c([N+](=O)[O-])cc(C)c(C)c1[N+](=O)[O-] [pendimethalin]
- Activity [%] against Xanthium strumarium (Xanthium strumarium; Table 5-77, greenhouse, 100 g of a.i./ha): 0%
- Activity [%] against Digitaria sanguinalis (Digitaria sanguinalis; Table 5-36, greenhouse, 50 g of a.i./ha): 0%
- Activity [%] against Polygonum convolvulus (Polygonum convolvulus; Table 5-37, greenhouse, 100 g of a.i./ha): 0%
- Activity [%] against Polygonum convolvulus (Polygonum convolvulus; Table 5-78, greenhouse, 100 g of a.i./ha): 0%

Compound: CCS(=O)(=O)c1cccnc1S(=O)(=O)NC(=O)Nc1nc(OC)cc(OC)n1 [rimsulfuron]
- Activity [%] against Portulaca oleracea (Portulaca oleracea; Table 5-20, field, 6 g of a.i./ha): 0%

Compound: COC(=O)c1csc(C)c1S(=O)(=O)NC(=O)n1nc(OC)n(C)c1=O [thiencarbazone-methyl]
- Activity [%] against Bidens pilosa (Bidens pilosa; Table 5-96, greenhouse, alone, 0.5 g of a.i./ha): 40%
- Activity [%] against Brachiaria platyphylla (Brachiaria platyphylla; [2]): 75%
- Activity [%] against Ambrosia artemisiifolia (Ambrosia artemisiifolia; Table 5-52, greenhouse, 0.25 g of a.i./ha): 0%
- Activity [%] against Ambrosia artemisiifolia (Ambrosia artemisiifolia; Table 5-75, greenhouse, 0.25 g of a.i./ha): 0%

Compound: bicyclopyrone
- Activity [%] against Portulaca oleracea (Portulaca oleracea; Table 5-18, field, 25 g of a.i./ha): 23%

From patent US9867376B2, “Herbicidal compositions comprising N-tetrazol-5-yl)- or N-(triazol-5-yl)arylcarboxamides” (priority 2012, dated 2018)
